Laboratory results published in patent US20250115581A1, “SUBSTITUTED PIPERIDINES AS CK1A DEGRADERS” (Monte Rosa Therapeutics, Inc., priority 2022, published 2025).

The compounds below were run against T1, CK1α (Homo sapiens, UniProt P48729+Q96SW2) (assay: CK1α NanoBit Assay (HiBiT-tagged CSNK1A1 in HEK293 cells, luminescence)). Conditions: 24 h.
T1 construct: HEK293 clonal lines with CRISPR KI HiBiT tag on CSNK1A1; host or cells: HEK293 clonal line, CRISPR knock-in HiBiT at the CSNK1A1 locus, stably expressing LgBiT
Assay type: cell-based
Protocol: HEK293 clonal lines with CRISPR KI HiBiT tag on CSNK1A1 and stably expressing LgBiT protein were obtained from Promega (Madison, WI). Cells were plated at 5000 cells per well using Multiflo (BioTek) in 384-well white solid bottom plates (Corning, 3570BC) in 25 μl volume in DMEM media (DMEM, high glucose, HEPES, no phenol red (ThermoFisher Scientific, 21063029)) containing 10% FBS (Corning, 35-075-CV), 1% Penicillin/Streptomycin ((ThermoFisher Scientific, 15140-122), and 0.2% Endurazine (Nano-Glo Endurazine Live Cell Substrate (Promega, N2571)). Cells were incubated for 16 hours at 37° C., 5% CO2. Depending on experiment 25 or 75 nL of a compound at 10 mM were added into the plate using an Echo® 650 liquid handler (Labcyte) to achieve final concentration of 10 or 30 μM in wells. Cells were incubated at 37° C., 5% CO2 for 24 hours and then signal was read on a Pherastar FSX using “LUM plus” optic module.
Data analysis was performed in Scinamic (Scinamic, Cambridge, MA). Luminescence response (R) was calculated by the formula: response=100*(S−N)/(P−N) where S is the signal of the well, N and P the mean negative and positive control values respectively of the same plate. The luminescence response was then fitted in Scinamic using a 3-parameter agonist logistic fit (hillslope=1, EC50>0, top/bottom unconstrained).
DC50 data are reported in Table 2 for compounds in Table 1. In Table 2 below, According to the code, A represents a DC50 value of ≤0.1 μM, B represents a DC50 value >0.1 μM and ≤1 μM, C represents an DC50 value >1 μM.

T1 sequence (P48729 whole entry): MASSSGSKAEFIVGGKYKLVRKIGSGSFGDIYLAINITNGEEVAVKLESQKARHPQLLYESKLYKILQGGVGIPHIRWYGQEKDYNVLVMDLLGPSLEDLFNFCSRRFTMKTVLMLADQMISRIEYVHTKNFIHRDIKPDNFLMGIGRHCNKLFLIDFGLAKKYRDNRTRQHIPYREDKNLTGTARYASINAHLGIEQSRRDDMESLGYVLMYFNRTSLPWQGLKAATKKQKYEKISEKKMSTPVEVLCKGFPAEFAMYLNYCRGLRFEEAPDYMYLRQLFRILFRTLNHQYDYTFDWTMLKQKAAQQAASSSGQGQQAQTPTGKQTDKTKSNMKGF
T1 sequence (Q96SW2 whole entry): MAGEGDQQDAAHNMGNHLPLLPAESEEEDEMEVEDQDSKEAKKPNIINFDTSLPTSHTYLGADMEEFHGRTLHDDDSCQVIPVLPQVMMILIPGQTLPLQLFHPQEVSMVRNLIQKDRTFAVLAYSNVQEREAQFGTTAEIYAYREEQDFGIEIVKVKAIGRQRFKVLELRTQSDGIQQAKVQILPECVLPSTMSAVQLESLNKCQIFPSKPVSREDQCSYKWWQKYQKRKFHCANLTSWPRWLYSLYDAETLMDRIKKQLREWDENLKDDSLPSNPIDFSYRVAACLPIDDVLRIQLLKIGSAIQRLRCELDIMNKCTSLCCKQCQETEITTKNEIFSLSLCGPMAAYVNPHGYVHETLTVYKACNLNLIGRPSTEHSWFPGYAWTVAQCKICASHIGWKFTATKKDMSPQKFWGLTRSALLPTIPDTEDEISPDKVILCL
T1 sequence (Q16531 whole entry partner): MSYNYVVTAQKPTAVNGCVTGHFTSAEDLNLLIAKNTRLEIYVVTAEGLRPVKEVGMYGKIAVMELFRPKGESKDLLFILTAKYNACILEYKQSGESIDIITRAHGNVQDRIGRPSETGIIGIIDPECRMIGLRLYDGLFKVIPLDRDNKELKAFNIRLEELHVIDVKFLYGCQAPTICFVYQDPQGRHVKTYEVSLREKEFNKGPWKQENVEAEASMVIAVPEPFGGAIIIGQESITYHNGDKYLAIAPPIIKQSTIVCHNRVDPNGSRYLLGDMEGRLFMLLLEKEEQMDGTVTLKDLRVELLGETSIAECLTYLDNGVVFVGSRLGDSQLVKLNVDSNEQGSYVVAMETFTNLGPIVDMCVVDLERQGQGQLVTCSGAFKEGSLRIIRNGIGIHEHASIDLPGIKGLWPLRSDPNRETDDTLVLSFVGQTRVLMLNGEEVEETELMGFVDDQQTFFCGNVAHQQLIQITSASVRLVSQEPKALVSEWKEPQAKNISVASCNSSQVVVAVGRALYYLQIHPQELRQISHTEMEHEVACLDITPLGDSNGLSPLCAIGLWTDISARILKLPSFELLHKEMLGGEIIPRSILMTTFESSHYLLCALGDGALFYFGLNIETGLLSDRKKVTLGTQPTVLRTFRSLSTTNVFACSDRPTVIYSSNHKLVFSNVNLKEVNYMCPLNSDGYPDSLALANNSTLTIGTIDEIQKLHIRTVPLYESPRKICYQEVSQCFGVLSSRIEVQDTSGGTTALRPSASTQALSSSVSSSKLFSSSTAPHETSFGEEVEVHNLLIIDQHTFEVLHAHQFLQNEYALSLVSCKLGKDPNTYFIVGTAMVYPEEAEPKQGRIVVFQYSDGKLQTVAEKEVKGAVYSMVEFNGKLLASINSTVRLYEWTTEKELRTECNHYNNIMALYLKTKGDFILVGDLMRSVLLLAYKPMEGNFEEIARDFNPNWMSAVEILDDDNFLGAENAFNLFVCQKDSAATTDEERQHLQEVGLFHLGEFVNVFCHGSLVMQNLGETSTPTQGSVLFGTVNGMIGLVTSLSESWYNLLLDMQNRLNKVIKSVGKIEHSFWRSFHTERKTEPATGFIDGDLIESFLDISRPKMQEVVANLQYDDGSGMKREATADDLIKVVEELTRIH

Compound | DC50
Cc1cc(N2CCN(c3ccc4c(c3)CN(C3CCC(=O)NC3=O)C4=O)C2=O)ccn1 (stereo not shown) [Compound 103, 3-(5-(3-(2-methylpyridin-4-yl)-2-oxoimidazolidin-1-yl)-1-oxoisoindolin-2-yl)piperidine-2,6-dione] | > 1 µM
Cc1ccc(N2CCN(c3ccc4c(c3)CN(C3CCC(=O)NC3=O)C4=O)C2=O)nc1 (stereo not shown) [Compound 141, 3-(5-(3-(5-methylpyridin-2-yl)-2-oxoimidazolidin-1-yl)-1-oxoisoindolin-2-yl)piperidine-2,6-dione] | ≤ 0.1 µM
O=C1CCC(N2Cc3cc(N4CCN(c5ccc(C6(C(F)(F)F)CC6)cc5)C4=O)ccc3C2=O)C(=O)N1 (stereo not shown) [Compound 147, 3-(1-oxo-5-(2-oxo-3-(4-(1-(trifluoromethyl)cyclopropyl)phenyl)imidazolidin-1-yl)isoindolin-2-yl)piperidine-2,6-dione] | ≤ 0.1 µM
N#Cc1cccc(N2CCN(c3ccc4c(c3)CN(C3CCC(=O)NC3=O)C4=O)C2=O)c1 (stereo not shown) [Compound 148, 3-(3-(2-(2,6-dioxopiperidin-3-yl)-1-oxoisoindolin-5-yl)-2-oxoimidazolidin-1-yl)benzonitrile] | ≤ 0.1 µM
